According to patent US20080242688A1, “Method 741” (ASTRAZENECA AB, priority 2007, published 2008):
Values joined by “and” are separate entries in the source; they are usually repeats but may differ in a detail not shown here. Identical values can stand only once. Like-named read-outs stand apart in the source and are kept apart here.

Assays:
Pgp transporter = molecular target: T1, Pgp transporter (Homo sapiens, UniProt P08183); test: Digoxin transport, cell-based assay; format: in vitro ADME
T1 construct: host or cells: unnamed cells
T1 sequence (P08183 whole entry): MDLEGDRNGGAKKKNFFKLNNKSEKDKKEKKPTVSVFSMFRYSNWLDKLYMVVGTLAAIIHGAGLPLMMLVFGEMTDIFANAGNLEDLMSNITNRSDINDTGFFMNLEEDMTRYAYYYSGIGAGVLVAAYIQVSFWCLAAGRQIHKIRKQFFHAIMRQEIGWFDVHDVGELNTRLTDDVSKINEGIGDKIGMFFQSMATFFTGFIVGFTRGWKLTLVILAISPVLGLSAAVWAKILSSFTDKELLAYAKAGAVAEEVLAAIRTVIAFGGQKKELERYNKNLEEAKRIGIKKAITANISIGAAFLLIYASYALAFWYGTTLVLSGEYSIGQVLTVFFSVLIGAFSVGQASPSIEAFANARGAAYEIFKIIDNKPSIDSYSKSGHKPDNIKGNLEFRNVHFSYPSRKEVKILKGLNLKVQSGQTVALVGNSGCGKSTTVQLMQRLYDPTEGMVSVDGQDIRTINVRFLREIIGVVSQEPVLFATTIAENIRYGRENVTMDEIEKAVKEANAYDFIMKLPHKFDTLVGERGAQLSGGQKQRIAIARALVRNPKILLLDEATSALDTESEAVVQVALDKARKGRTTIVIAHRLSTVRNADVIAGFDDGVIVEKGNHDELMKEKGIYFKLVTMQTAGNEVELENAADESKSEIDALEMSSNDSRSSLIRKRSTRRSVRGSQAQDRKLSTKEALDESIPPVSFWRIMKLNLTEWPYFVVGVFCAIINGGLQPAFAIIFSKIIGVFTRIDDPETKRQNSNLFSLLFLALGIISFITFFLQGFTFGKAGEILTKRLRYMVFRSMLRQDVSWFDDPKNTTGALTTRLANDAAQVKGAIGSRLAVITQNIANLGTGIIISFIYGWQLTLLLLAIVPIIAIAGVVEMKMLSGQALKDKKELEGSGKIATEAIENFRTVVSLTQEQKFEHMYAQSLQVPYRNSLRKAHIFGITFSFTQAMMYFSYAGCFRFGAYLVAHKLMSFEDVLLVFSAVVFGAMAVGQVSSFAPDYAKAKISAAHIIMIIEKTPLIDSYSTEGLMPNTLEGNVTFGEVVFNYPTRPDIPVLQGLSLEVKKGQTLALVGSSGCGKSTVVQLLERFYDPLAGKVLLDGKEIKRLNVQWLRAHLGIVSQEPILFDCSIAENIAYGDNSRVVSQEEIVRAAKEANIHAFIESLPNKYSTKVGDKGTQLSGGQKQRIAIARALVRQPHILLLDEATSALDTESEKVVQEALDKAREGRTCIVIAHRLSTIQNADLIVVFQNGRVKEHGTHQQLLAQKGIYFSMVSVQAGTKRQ
Source text: The 50% bioavailability of AZD0328 in human was conservatively selected based on the observations from rat, dog and monkey.

[1] = test system: putative dopaminergic neurons within the VTA; test: Ventral Tegmental Area dopamine neuron firing; format: in vivo; conditions: rat, iv, 0.17-0.5 h
[2] = Single dose PK/TK, rabbit; conditions: New Zealand White, in vivo
Source text: (§1) This section provides a summary of the pharmacokinetic and metabolism properties of AZD0328 derived from in vivo studies. […] The derived PK/TK parameters from these studies are presented in Table 4 for single dose studies (DMR4, 0619LR, 20030191PCR, DMO16, DMB10, DMW12, 50190, 0190DD and 03.330/1), and are presented in Table 5 multiple dose PK/TK studies (DMR4, 0612AR, DMB15, 50190, 0190DD and 0295AD).

5-HT3A = molecular target: T2, 5-HT3A (Homo sapiens, UniProt P46098); test: Functional assays at recombinant human receptors; format: biochemical; conditions: functional potency, recombinant human receptors in vitro
T2 construct: expressed in transfected cells
T2 sequence (P46098 24-478): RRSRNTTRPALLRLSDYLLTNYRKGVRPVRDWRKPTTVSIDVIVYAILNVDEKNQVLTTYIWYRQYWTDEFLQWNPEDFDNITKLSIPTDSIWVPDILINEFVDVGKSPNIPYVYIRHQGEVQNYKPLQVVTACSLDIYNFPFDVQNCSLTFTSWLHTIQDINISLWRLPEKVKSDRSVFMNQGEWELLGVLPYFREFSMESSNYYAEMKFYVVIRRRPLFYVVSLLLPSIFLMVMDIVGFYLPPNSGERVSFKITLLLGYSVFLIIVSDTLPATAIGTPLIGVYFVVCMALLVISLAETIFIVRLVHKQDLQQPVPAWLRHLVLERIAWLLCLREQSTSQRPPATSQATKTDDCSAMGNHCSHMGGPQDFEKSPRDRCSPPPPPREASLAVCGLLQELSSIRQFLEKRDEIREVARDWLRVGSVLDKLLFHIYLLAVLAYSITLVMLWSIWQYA

[3] = molecular target: T3, rat recombinant α7 receptor (Rattus norvegicus, UniProt Q05941); test: Whole cell current, oocytes; format: cell-based; conditions: oocyte
T3 construct: expressed in transfected cells; host or cells: Xenopus oocytes
T3 sequence (Q05941 23-502): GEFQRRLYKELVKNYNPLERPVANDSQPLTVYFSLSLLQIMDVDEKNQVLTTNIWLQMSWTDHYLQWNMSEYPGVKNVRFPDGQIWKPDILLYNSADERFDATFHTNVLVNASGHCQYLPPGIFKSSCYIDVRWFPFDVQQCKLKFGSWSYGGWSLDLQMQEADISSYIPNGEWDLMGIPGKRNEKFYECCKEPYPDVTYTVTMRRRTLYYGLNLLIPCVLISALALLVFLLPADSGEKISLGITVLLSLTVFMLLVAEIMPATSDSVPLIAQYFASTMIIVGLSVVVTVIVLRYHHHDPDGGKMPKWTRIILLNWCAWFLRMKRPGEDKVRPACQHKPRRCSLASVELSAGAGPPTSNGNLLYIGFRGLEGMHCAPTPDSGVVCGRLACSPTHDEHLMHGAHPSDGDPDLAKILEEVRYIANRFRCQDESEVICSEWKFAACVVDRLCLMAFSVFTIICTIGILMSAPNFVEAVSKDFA
Source text: (§2) In membranes prepared either from cultured, human recombinant α7 receptor-expressing, human embryonic kidney cells α7-HEK) or from rat brain hippocampus, AZD0328 competed with binding of an iodinated form of the high-affinity, selective α7 receptor antagonist snake toxin, [^125I]-α-bungarotoxin (BTX) (Table 1). In Xenopus oocytes injected with human, recombinant α7 receptor mRNA, AZD0328 activates whole cell currents (Table 2). […] In acutely dissociated rat hippocampal interneurons, AZD0328 elicits rapidly activated, desensitizing whole-cell current (Table 1), consistent with the known properties of rat neuronal α7 receptors. […] AZD0328 modulates synaptic function, consistent with the well-known role of α7 receptors as heteroreceptor modulators of glutamatergic and GABAergic synaptic function.

[4] = molecular target: T4, mouse recombinant α7 receptor (Mus musculus, UniProt P49582); test: Whole cell current, oocytes; format: cell-based; conditions: oocyte
T4 construct: expressed in transfected cells; host or cells: Xenopus oocytes
T4 sequence (P49582 23-502): as the sequence (Q05941 23-502) above, with A402T counted along it
Source text: as §2

Multiple dose PK/TK, dog = format: in vivo; set-up: AUC/dose: unit not given beside the values; conditions: for AUC / Cmax / Tmax: both sexes, dog, in vivo, po
Source text: as §1

[5] = female, sc, rabbit 3F, DMB10, single subcutaneous 2.16 mg/kg (10 μmol/kg)
[6] = female, sc, rabbit 3F, DMB10, single subcutaneous 6.49 mg/kg (30 μmol/kg)
[7] = 34.6 mg/kg, dog 2F+2M, 0190DD, 34.6 mg/kg (160 μmol/kg) split in two 6 h apart, capsules fasted, day 1
[8] = 34.6 mg/kg, dog 2F+2M, 0190DD, 34.6 mg/kg (160 μmol/kg) split in two 6 h apart, capsules fasted, day 7
[9] = 34.6 mg/kg, dog 2F+2M, 0190DD, 34.6 mg/kg (160 μmol/kg) split in two 6 h apart, solution fasted, day 1
[10] = 34.6 mg/kg, dog 2F+2M, 0190DD, 34.6 mg/kg (160 μmol/kg) split in two 6 h apart, solution fasted, day 7
[11] = 138 mg/kg, dog 2F+2M, 0190DD, 138 mg/kg (640 μmol/kg) split in two 6 h apart, capsules fed, day 1
[12] = 138 mg/kg, dog 2F+2M, 0190DD, 138 mg/kg (640 μmol/kg) split in two 6 h apart, capsules fed, day 7

Compound: c1cnc2c(c1)C[C@@]1(CN3CCC1CC3)O2 [AZD0328, (R)-Spiro[1-azabicyclo[2.2.2]octane-3,2′(3′H)-furo[2,3-b]pyridine]]
- inhibition of Pgp mediated digoxin transport (Pgp transporter): did not significantly inhibit
- decrease of digoxin transport (Pgp transporter; 10.8 μg/mL (50 μM)): 11%
- Dose active: Ventral Tegmental Area dopamine neuron firing - increased [1]: 1.38 µg/kg
- half-life ([2]; rabbit, read-out: elimination half-life): < 5 h
- AUC [2, 5]: 1750 ng·h/mL and 8.1 µM·h
- Cmax [2, 5]: 589 ng/mL and 2.72 µM
- Tmax [2, 5]: 0.5 to 1.12 h
- half-life ([2]; female, sc, rabbit 3F, DMB10, single subcutaneous 2.16 mg/kg (10 μmol/kg), read-out: T½ (converted)): 2.71 ± 1.17 h
- AUC [2, 6]: 7340 ng·h/mL and 33.9 µM·h
- Cmax [2, 6]: 1.75 ± 0.056 µg/mL
- Tmax [2, 6]: 0.267 to 1.08 h
- half-life ([2]; female, sc, rabbit 3F, DMB10, single subcutaneous 6.49 mg/kg (30 μmol/kg), read-out: T½ (converted)): 4.56 ± 1.36 h
- functional selectivity 5-HT3A>α7 (5-HT3A): 14 fold
- EC50 ([3]; rat recombinant α7): 1.1 µM
- Emax ([3]; rat recombinant α7, 10 μM, read-out: Maximum response, whole cell current): 87%
- EC50 ([4]; mouse recombinant α7): 1 µM
- Emax ([4]; mouse recombinant α7, 10 μM, read-out: Maximum response, whole cell current): 83%
- AUC (Multiple dose PK/TK, dog; [7]): 4430 ng·h/mL and 20.5 µM·h
- Cmax (Multiple dose PK/TK, dog; [7]): 694 ng/mL and 3.21 µM
- Tmax (Multiple dose PK/TK, dog; [7]): 1 to 3 h
- AUC (Multiple dose PK/TK, dog; [8]): 6970 ng·h/mL and 32.2 µM·h
- Cmax (Multiple dose PK/TK, dog; [8]): 2120 ng/mL and 9.79 µM
- Tmax (Multiple dose PK/TK, dog; [8]): 1 h
- AUC (Multiple dose PK/TK, dog; [9]): 4890 ng·h/mL and 22.6 µM·h
- Cmax (Multiple dose PK/TK, dog; [9]): 1130 ng/mL and 5.2 µM
- Tmax (Multiple dose PK/TK, dog; [9]): 0.5 h
- AUC (Multiple dose PK/TK, dog; [10]): 7200 ng·h/mL and 33.3 µM·h
- Cmax (Multiple dose PK/TK, dog; [10]): 1560 ng/mL and 7.22 µM
- Tmax (Multiple dose PK/TK, dog; [10]): 0.5 to 1 h
- AUC (Multiple dose PK/TK, dog; [11]): 11900 ng·h/mL and 55 µM·h
- Cmax (Multiple dose PK/TK, dog; [11]): 1520 ng/mL and 7.04 µM
- Tmax (Multiple dose PK/TK, dog; [11]): 1 to 6 h
- AUC (Multiple dose PK/TK, dog; [12]): 7160 ng·h/mL and 33.1 µM·h
- Cmax (Multiple dose PK/TK, dog; [12]): 1360 ng/mL and 6.27 µM
- Tmax (Multiple dose PK/TK, dog; [12]): 0.5 to 6 h
- AUC/dose (Multiple dose PK/TK, dog; dog 2F+2M, 0190DD, 34.6 mg/kg (160 μmol/kg) split in two 6 h apart, capsules fasted, day 1): 0.128 ± 0.087
- AUC/dose (Multiple dose PK/TK, dog; dog 2F+2M, 0190DD, 34.6 mg/kg (160 μmol/kg) split in two 6 h apart, solution fasted, day 1): 0.141 ± 0.014
- AUC/dose (Multiple dose PK/TK, dog; dog 2F+2M, 0190DD, 34.6 mg/kg (160 μmol/kg) split in two 6 h apart, solution fasted, day 7): 0.208 ± 0.088
- AUC/dose (Multiple dose PK/TK, dog; dog 2F+2M, 0190DD, 138 mg/kg (640 μmol/kg) split in two 6 h apart, capsules fed, day 1): 0.0859 ± 0.0530
- AUC/dose (Multiple dose PK/TK, dog; dog 2F+2M, 0190DD, 138 mg/kg (640 μmol/kg) split in two 6 h apart, capsules fed, day 7): 0.0517 ± 0.0206
- AUC/dose (Multiple dose PK/TK, dog; dog 3F, 0295AD, 8.65 mg/kg (40 μmol/kg) split in two 6 h apart, capsules fed, day 7): 0.113 ± 0.038
- AUC/dose (Multiple dose PK/TK, dog; dog 3F, 0295AD, 8.65 mg/kg (40 μmol/kg) split in two 6 h apart, capsules fed, day 35): 0.107 ± 0.017
- AUC/dose (Multiple dose PK/TK, dog; dog 3F, 0295AD, 17.3 mg/kg (80 μmol/kg) split in two 6 h apart, capsules fed, day 7): 0.246 ± 0.092
- AUC/dose (Multiple dose PK/TK, dog; dog 3F, 0295AD, 17.3 mg/kg (80 μmol/kg) split in two 6 h apart, capsules fed, day 35): 0.233 ± 0.049
- AUC/dose (Multiple dose PK/TK, dog; dog 3M, 0295AD, 8.65 mg/kg (40 μmol/kg) split in two 6 h apart, capsules fed, day 7): 0.100 ± 0.051
- AUC/dose (Multiple dose PK/TK, dog; dog 3M, 0295AD, 8.65 mg/kg (40 μmol/kg) split in two 6 h apart, capsules fed, day 35): 0.145 ± 0.039
- AUC/dose (Multiple dose PK/TK, dog; dog 3M, 0295AD, 17.3 mg/kg (80 μmol/kg) split in two 6 h apart, capsules fed, day 7): 0.223 ± 0.047
